Values of other authors in patent US20180042922A1 (priority 2016, published 2018).

Test system: patients with PTSD
Details: RCTs

COc1cc2nc(N3CCN(C(=O)c4ccco4)CC3)nc(N)c2cc1OC [prazosin]
nightmares in patients with PTSD: decrease nightmares
